Entries after “also recorded” stand apart in the source; their conditions may differ. Read-outs that look alike come from different tables or passages of the source. No end group written: not given here.
System: peripheral blood basophils (PBMC) from cat allergic subjects
Assay: Histamine release assay and histamine ELISA
Assay type: cell-based, human
Details: for frequency of histamine release, in words: comparison among individual peptides
Procedure: Histamine release from fresh peripheral whole blood from cat allergic subjects was evaluated. Peripheral blood basophils were used as a surrogate for tissue mast cells which were not practical to assay. Blood was incubated in vitro with 9 individual peptides from the sequence of the major cat allergen Fel d 1 (SEQ ID NOS: 1, 2, 3, 4, 5, 6, 7, 11 and 12). These peptides were selected as potential T cell epitopes following peptide-MHC binding assays as explained in Example 1. Additionally, responses to a preferred mixtures of a mixture of 7 peptides identified in Example 1 were analysed. The tested preferred mixture of 7 peptides consisted of the peptides of SEQ ID NOS: 1 to 7. Histamine release in response to whole cat dander allergen extract acted as a positive control.
Peripheral blood mononuclear cells (PBMC) were isolated from the heparinised blood sample obtained from the subject. PBMC's were isolated by Ficoll-Hypaque density gradient separation. Once isolated, the cells were used in the cell proliferation assay, histamine release and ELISA assay and the cytokine release assay.
Assays were performed on PBMC (which contain basophils). Each peptide and combinations of peptides was compared with whole allergen molecules in a histamine release assay. Histamine concentrations were measured by ELISA.
The assay required 3×10^6 PBMC's per subject. The assay was performed using the Immunotech Histamine Release Immunoassay kit according to the manufacturer's instructions. Following the histamine release assay, acylated samples were tested by histamine ELISA. The histamine ELISA used 50 μl of the 100 μl acylated sample generated by the histamine release assay. The remaining 50 μl of sample was retained, by freezing at −20° C. until the data analysis section of the ELISA has been completed. Once the results had been analysed and the ELISA performed in a satisfactory manner, the samples were discarded.
Peptides were assayed for their ability to induce histamine release over a 5 log10 range (10 μg/ml to 1 ng/ml). The concentration range assayed was selected based on theoretical in vivo doses of peptide that may be achieved during therapy. For example, a 10 μg dose of peptide entering a blood volume of 5 litres, would result in a blood concentration of 2 ng/ml (2×10^−6 mg/ml), at the lower end of the histamine release assay dose range. Whole cat dander extract (C.B.F. LETI) was used as a positive control for release over a slightly higher concentration range (100 μg to 10 ng/ml). Single measurements (i.e. not duplicate or triplicate) were performed for each dilution. One duplicate blood sample was assayed for spontaneous histamine release and the mean value of these samples was subtracted from all peptide/allergen results.
After completion of the histamine ELISA, individual histamine levels were determined by interpolation for the standard curve generated in the ELISA assay. Results from samples were adjusted to allow for any dilution of the samples.
Histamine release was considered positive if (a) the highest concentration of peptide alone induced release of 10% or more of the total release value or (b) if two consecutive values were 10% or more of the total release. […] Of these, 6/81 (7.4%) had not positive control release to whole cat allergen extract.

Molecule: AVQNTVEDLKLNTLGR [MLA16, AVQNTVEDLKLNTLGR]
- frequency of histamine release, in words: most commonly released histamine; also recorded: the most frequent basophil histamine release responses; also recorded: most frequently associated with histamine release; also recorded: caused most frequent release; also recorded: gave the highest histamine release
- number of individuals in whom histamine release was detected (of 81 subjects): 11

Molecule: TAMKKIQDCYVENGLI [MLA12, TAMKKIQDCYVENGLI]
- number of individuals in whom histamine release was detected (of 81 subjects): 6

Molecule: SRVLDGLVMTTISSSK [MLA14, SRVLDGLVMTTISSSK]
- number of individuals in whom histamine release was detected (of 81 subjects): 2

Molecule: ISSSKDCMGEAVQNTV [MLA15, ISSSKDCMGEAVQNTV]
- frequency of histamine release, in words: most commonly released histamine; also recorded: the most frequent basophil histamine release responses; also recorded: gave the highest histamine release
- Comments on histamine release (individual subject): MLA15 JUST ABOVE THE 10% CUT OFF
- number of individuals in whom histamine release was detected (of 81 subjects): 7

Molecule: KENALSVLDKIYTSPL [MLA07]
- number of individuals in whom histamine release was detected: 6

Molecule: KALPVVLENARILKNCV [MLA04, KALPVVLENARILKNCV]
- number of individuals in whom histamine release was detected (of 81 subjects): 6

Molecule: CC(C)C[C@H](NC(=O)[C@@H](NC(=O)[C@@H](NC(=O)[C@@H]1CCCN1C(=O)[C@H](CC(C)C)NC(=O)[C@H](C)NC(=O)[C@H](CCCCN)NC(=O)[C@H](Cc1ccc(O)cc1)NC(=O)[C@H](CCC(N)=O)NC(=O)[C@H](C)NC(=O)[C@@H](NC(=O)[C@H](CCC(N)=O)NC(=O)[C@@H](N)CCC(=O)O)C(C)C)C(C)C)C(C)C)C(=O)N[C@@H](CCC(=O)O)C(=O)N[C@@H](CC(N)=O)C(=O)N[C@@H](C)C(=O)O [MLA03, EQVAQYKALPVVLENA]
- number of individuals in whom histamine release was detected (of 81 subjects): 6

Molecule: RILKNCVDAKMTEEDKE [MLA05, RILKNCVDAKMTEEDKE]
- number of individuals in whom histamine release was detected: 1
